Measured values as given in patent US20090220448A1, “HAIR CARE COMPOSITIONS AND METHODS FOR INCREASING HAIR DIAMETER AND FOR IMMEDIATE FULLER/THICKER HAIR APPEARANCE” (priority 2008, published 2009).

Tested on: Primary human dermal papilla cells
Assay: Synergy study: survival of metabolically stressed dermal papilla cells (ATP, Cell Titer Glo)
Format: cell-based
Conditions: 0.05%, 48 hours metabolic stress in reduced media, control 100% water
Experimental: The dermal papilla, in normal human hair, is the control center for hair diameter. Increasing survival of dermal papilla cells in situ leads to increased hair diameter. Accordingly, an increase in survival of dermal papilla cells correlates with an increase in hair diameter.
Primary human dermal papilla cells were metabolically stressed for 48 hours in reduced standard tissue culture media. During this period of stress the cells were treated with the mixtures or individual ingredients below. After 48 hr the metabolic activity of the cells was measured by the amount of ATP using the Cell Titer Glo™ kit (Promega).

In the case of Cn1c(=O)c2c(ncn2C)n(C)c1=O [Caffeine], the “Survival rate: % Change from Control” value is reported as “+41%”.
